One series relates to MDA-MB-231. Briefly: Antiproliferative activity against human MDA-MB-231 cells. Format: functional, cell-based.
Series [1] in a line: Inhibition of ACAT in cholesterol-fed New Zealand rabbit intestional microsomes using [1-14C]oleoyl-CoA as substrate preincubated for 5 mins followed by substrate addition and measured after 5 mins by liquid scintillation counting method. On the set-up: species or system Oryctolagus cuniculus, Intestine, Microsome.
In the next series the target is Matrilysin (Homo sapiens, UniProt P09237). Briefly: Inhibition of human MMP7 by fluorometric assay.
Sequence of Matrilysin (P09237 whole entry): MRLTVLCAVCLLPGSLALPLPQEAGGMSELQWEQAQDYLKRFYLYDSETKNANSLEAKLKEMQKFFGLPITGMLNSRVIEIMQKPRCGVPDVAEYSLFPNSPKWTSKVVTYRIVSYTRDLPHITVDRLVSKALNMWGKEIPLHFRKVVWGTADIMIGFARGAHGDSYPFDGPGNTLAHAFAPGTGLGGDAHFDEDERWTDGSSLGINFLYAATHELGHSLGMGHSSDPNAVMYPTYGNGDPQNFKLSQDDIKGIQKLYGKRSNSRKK
In the next series the target is Interstitial collagenase (Homo sapiens, UniProt P03956). Nature of the series: Inhibition of PMA-induced human skin fibroblast derived MMP1 by fluorometric assay. Format: tissue-based.
Sequence of Interstitial collagenase (P03956 whole entry): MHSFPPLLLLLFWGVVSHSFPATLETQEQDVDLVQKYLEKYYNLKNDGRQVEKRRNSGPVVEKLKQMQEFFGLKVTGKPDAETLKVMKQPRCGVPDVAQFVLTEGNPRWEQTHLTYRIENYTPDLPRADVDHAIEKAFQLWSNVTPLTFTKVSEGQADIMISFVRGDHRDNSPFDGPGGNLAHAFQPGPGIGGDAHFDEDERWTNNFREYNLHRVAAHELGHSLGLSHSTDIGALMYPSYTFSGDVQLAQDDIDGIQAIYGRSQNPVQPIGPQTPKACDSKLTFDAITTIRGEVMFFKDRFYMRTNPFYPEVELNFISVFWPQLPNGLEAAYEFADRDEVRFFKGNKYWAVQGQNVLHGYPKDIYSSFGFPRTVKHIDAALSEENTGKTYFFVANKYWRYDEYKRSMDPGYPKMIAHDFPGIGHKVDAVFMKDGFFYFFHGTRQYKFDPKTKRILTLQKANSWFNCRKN
In another series the target is Stromelysin-1 (Homo sapiens, UniProt P08254). Briefly: Inhibition of human MMP3 by fluorometric assay.
Sequence of Stromelysin-1 (P08254 whole entry): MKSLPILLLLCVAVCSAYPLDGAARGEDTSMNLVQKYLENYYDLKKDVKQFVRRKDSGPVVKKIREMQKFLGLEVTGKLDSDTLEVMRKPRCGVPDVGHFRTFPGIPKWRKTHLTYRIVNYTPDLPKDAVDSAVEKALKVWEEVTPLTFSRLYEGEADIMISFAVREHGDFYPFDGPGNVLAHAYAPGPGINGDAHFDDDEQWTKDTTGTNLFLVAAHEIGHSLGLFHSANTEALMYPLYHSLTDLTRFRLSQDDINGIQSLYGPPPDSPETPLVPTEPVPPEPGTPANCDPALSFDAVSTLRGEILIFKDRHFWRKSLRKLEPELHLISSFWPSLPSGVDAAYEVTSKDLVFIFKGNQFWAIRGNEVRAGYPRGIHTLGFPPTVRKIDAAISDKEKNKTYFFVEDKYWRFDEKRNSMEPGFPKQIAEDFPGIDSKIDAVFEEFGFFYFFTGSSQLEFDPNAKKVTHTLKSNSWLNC
Series [2] is described as follows: Oral bioavailability in monkey at 10 mg/kg. The series is classed as ADME, organism-based, Macaca mulatta. Conditions: rhesus monkey, in vivo.
Series [3] can be described thus: Half life in monkey at 10 mg/kg, po. The series is classed as ADME, organism-based, Macaca mulatta. The conditions noted are these: rhesus monkey, in vivo.
Series [4] has as its target 72 kDa type IV collagenase (Homo sapiens, UniProt P08253). Nature of the series: Inhibition of TNF-induced MMP2 isolated from human HT-1080 cell medium by fluorometric assay. Format: tissue-based.
Series [5] concerns the target Human immunodeficiency virus type 1 protease (Human immunodeficiency virus 1, UniProt Q72874). Nature of the series: Inhibition of HIV-1 protease.
In series [6] the test system is Poly(dG-dC)oligonucleotide. Nature of the series: Binding affinity to poly (dG-dC) (unknown origin) by ethidium displacement assay. The series is classed as nucleic-acid assay.
Series [7] deals with Poly(dA-dT)oligonucleotide. Nature of the series: Binding affinity to poly (dA-dT) (unknown origin) by ethidium displacement assay. Format: nucleic-acid assay.
Series [8] concerns Mus musculus. Briefly: Immunosuppressive activity in B6D2F1 mouse model of graft-versus-host disease assessed as mean survival days at 3 mg/kg, ip administered for day 1 to day 10 (day 6 omitted) and measured at day 60. Format: functional. The conditions noted are these: time 60 day.
A further series relates to Rattus norvegicus. Briefly: Immunosuppressive activity in Lewis rat model of Heart Allotransplantation assessed as mean survival days at 6 mg/kg, ip administered for 10 days by Manntel-Haenszel test. The series is classed as functional. Conditions: time 10 day.
In series [9] the test system is Mus musculus. Nature of the series: Immunosuppressive activity in B6D2F1 mouse model of graft-versus-host disease assessed as mean survival days at 1 mg/kg, ip administered for day 1 to day 10 (day 6 omitted) and measured at day 60. Format: functional. The conditions noted are these: time 60 day.
The test system of another series is L1210. Briefly: Antiproliferative activity against mouse L1210 cells incubated for 48 hrs by Coulter counter method. Format: functional, cell-based. The conditions noted are these: L1210, 48 h.
A further series relates to CCRF-CEM. Nature of the series: Antiproliferative activity against human CEM cells incubated for 96 hrs by Coulter counter method. The series is classed as functional, cell-based.
A short description of series [10]: Growth inhibition of BAEC incubated for 3 days by Coulter counter method. Conditions: Bos taurus, 72 h.
A further series concerns HeLa. Briefly: Antiproliferative activity against human HeLa cells incubated for 4 days by Coulter counter method. Conditions: 96 h. Format: functional, cell-based.
A further series relates to HMEC-1. Briefly: Growth inhibition of HMEC-1 incubated for 4 days by Coulter counter method. The series is classed as cell-based. The conditions noted are these: Homo sapiens, HMEC-1, 96 h.
The target in series [11] is D(2) dopamine receptor (Bos taurus) (UniProt P20288). Nature of the series: Modulation of [3H]Spiroperidol/N-Propylnorapomorphine binding to dopamine D2 receptor in bovine striatal membranes incubated for 1 hr by Cheng-Prusoff analysis. The series is classed as cell membranes. The conditions noted are these: Striatum, Membrane, filed as modulator.
Sequence of D(2) dopamine receptor (Bos taurus) (P20288 whole entry): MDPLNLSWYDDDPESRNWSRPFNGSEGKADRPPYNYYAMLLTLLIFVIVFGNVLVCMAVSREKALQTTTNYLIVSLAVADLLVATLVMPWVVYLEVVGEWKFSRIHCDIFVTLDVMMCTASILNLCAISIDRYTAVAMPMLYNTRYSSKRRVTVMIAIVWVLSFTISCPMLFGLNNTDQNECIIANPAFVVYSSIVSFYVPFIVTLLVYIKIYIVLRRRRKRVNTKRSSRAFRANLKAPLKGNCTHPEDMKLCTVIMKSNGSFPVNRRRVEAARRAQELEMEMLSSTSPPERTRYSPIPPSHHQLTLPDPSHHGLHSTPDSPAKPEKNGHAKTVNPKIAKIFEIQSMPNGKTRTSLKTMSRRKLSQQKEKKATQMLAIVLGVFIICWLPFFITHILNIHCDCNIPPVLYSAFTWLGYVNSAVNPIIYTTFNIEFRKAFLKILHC
Series [12] has the same target. Nature of the series: Modulation of [3H]Spiroperidol/N-Propylnorapomorphine binding to dopamine D2 receptor in bovine striatal membranes incubated for 1 hr in presence of Gpp(NH)p by Cheng-Prusoff analysis. The series is classed as cell membranes. The conditions noted are these: Striatum, Membrane, filed as modulator.
In series [13] the target is Delta-type opioid receptor (Mus musculus, UniProt P32300). Nature of the series: Inhibition of [3H]-Deltorphin 2 binding to mouse delta opioid receptor expressed in rat GH3 cell membranes by Cheng-Prusoff analysis. On the set-up: species or system Cell membrane.
Sequence of Delta-type opioid receptor (P32300 whole entry): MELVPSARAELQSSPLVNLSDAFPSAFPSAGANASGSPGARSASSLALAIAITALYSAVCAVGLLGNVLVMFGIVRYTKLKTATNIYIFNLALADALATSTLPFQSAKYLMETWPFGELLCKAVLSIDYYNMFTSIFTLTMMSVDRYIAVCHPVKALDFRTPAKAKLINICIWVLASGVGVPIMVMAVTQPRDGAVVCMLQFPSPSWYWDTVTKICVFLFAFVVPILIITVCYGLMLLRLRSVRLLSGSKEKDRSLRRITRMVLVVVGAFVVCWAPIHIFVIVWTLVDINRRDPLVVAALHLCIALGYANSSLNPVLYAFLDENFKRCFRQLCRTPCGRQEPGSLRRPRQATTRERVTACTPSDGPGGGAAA
A short description of series [14]: Selectivity index, ratio of Ki for human CB1 receptor expressed in HEK cells to Ki for human CB2 receptor expressed in HEK cells.
The target in the next series is Cannabinoid receptor 2 (Homo sapiens, UniProt P34972). Briefly: Displacement of [3H]CP-55940 from human CB2 receptor expressed in HEK cells by competitive binding assay. The series is classed as cell-based. Background: In a radioligand displacement assay an active substance lowers the binding of a labelled ligand.
Sequence of Cannabinoid receptor 2 (P34972 whole entry): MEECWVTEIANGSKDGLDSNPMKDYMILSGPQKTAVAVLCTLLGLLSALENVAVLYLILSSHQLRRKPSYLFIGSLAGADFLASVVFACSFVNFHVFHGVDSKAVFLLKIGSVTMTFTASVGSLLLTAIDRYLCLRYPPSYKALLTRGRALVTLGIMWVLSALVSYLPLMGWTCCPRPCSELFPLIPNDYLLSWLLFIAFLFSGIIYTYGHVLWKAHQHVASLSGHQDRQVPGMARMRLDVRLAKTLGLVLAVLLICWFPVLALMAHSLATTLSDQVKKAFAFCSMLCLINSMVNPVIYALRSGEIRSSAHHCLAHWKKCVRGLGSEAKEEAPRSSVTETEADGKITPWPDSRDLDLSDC
A further series addresses Cannabinoid receptor 1 (Homo sapiens, UniProt P21554). Nature of the series: Displacement of [3H]CP-55940 from human CB1 receptor expressed in HEK cells by competitive binding assay. Format: cell-based.

pIC50, pKi: −log10 of the molar value. Square brackets hold non-standard residues; d marks the D form. Peptide text beside a SMILES is read from it. PhLac = O=C(O)[C@@H](O)Cc1ccccc1

As a reminder, the pIC50 is the negative decadic logarithm of the IC50, by convention in mol/L. One may read the bioavailability as the share of a dose that reaches the circulation, judged against a reference dose that is usually intravenous. As a reminder, the half-life is the time in which the quantity being followed falls by half. Broadly, the pKi is the Ki on a negative log10 scale, so that one unit is a factor of ten.

Sequence of Cannabinoid receptor 1 (P21554 whole entry): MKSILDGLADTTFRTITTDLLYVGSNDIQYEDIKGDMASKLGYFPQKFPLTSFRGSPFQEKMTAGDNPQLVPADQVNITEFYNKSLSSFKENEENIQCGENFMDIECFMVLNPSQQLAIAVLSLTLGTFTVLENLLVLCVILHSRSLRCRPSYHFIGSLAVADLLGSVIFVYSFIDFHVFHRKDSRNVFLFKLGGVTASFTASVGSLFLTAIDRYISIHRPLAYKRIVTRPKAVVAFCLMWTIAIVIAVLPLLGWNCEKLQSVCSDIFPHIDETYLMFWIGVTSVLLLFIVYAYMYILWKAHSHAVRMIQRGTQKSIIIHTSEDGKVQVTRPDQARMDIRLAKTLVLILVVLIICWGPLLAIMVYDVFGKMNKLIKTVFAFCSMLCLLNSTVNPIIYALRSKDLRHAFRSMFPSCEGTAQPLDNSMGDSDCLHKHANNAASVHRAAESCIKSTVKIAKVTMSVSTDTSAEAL
Sequence of 72 kDa type IV collagenase (P08253 whole entry): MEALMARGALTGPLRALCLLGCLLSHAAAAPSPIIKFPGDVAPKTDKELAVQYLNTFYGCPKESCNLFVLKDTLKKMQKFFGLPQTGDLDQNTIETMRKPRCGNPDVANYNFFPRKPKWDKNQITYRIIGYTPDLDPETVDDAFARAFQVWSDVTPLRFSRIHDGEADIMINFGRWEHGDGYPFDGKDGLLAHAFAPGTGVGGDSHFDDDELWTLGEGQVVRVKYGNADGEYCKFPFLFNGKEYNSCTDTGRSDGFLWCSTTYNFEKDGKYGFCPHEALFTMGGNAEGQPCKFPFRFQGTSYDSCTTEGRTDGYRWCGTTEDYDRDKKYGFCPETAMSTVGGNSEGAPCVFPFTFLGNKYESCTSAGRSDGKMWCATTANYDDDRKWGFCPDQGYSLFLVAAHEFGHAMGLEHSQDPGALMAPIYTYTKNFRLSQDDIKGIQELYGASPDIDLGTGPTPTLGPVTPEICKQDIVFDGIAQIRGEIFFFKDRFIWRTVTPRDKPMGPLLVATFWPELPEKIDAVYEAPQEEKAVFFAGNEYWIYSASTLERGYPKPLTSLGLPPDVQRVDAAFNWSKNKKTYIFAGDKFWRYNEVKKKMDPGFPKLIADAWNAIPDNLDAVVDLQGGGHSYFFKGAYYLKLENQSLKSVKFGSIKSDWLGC

In the series with MDA-MB-231, `O=S(=O)(NCc1ccc2c(c1)OCO2)c1ccccc1` showed a pIC50 of 4.85.

`CCCCCCCCCCCCCCCCCNC(=O)Nc1c(OC)cc(OC)cc1OC` had a pIC50 in series [1] of 6.49.

Consider `C=CC[C@H](C(=O)NO)[C@@H](CC(C)C)C(=O)N[C@H](C(=O)NC)C(C)(C)C`, for which the negative logarithm of the IC50 (pIC50) on Matrilysin was 7.96; on Interstitial collagenase it was 8.96; on Stromelysin-1, 8.00; in series [4] it was 9.07. The bioavailability in [2] turned out to be 15%. The same compound had a half-life in series [3] of 27 h.

`CC(C)(C)NS(=O)(=O)CC[C@@H]1O[C@@H]1[C@H](Cc1ccccc1)NC(=O)[C@@H](NC(=O)OCc1ccccc1)C(C)(C)S(C)(=O)=O` showed a pIC50 in [5] of 7.69.

`COc1ccc(C(=O)NCc2ccc3c(c2)OCO3)cc1` gave a pIC50 in the series on MDA-MB-231 of at most 3.70.

Turning to `CN(C)CCCNC(=O)c1cc(NC(=O)c2cc(NC(=O)c3cc(NC=O)cn3C)cn2C)cn1C`, the Kapp in series [6] is 0.9 10^5/M; in [7] it was 150 10^5/M.

For the compound `CC(C)c1cccc(C(C)C)c1NC(=O)NCC1(c2cccc(N(C)C)c2)CCCC1`, in series [1], the pIC50 was 7.20.

Consider `N=C(N)NCCCCCCNC(=O)COC(=O)NCCCCNCCCN`, for which the Survival is 58 days with Mus musculus [8], 54 days in the series with Rattus norvegicus and 46 days in the series on Mus musculus [9].

In the case of `C=CC[C@H](C(=O)NO)[C@@H](CC(C)C)C(=O)N[C@@H](Cc1ccccc1)C(=O)c1c[nH]c2ccccc12`, in [2], the bioavailability was found to be 12%. In [3], this compound showed a half-life of 20 h.

In the case of `CS(=O)(=O)c1ccc(-c2cn(-c3ccc(Cl)c(-c4ccccn4)c3)nn2)c(Cl)c1`, the pIC50 is 4.09 in the series with L1210; 4.30 in the series on CCRF-CEM; 4.40 in series [10]; under 4.00 with HeLa; 5.02 with HMEC-1.

In [11], `CC(C)C[C@@H](C(=O)NCC(N)=O)N1CC(=O)N2CCC[C@H]2C1=O` yielded a KiH of 0.08 nM and a KiL of 120 nM. Further, in series [12], the KiH stood at 0.12 nM and the KiL is 172 nM.

Take `CC(C)C[C@H](NC(=O)[C@H](Cc1ccccc1)NC(=S)CNC(=O)CNC(=O)[C@@H](N)Cc1ccc(O)cc1)C(=O)O`: in series [13], the pKi is 7.33.

Take `CC(C)C[C@H](NC[C@@H]1CCCN1)C(=O)NCC(N)=O`: in series [11], the KiH is 0.09 nM and the KiL was found to be 73.2 nM. Besides, in series [12], the KiH came to 0.13 nM and the KiL came to 60 nM.

As to `COC(=O)c1ccc(-c2cn(-c3cccc(-c4ccccc4)c3)nn2)cc1`, the pIC50 in the series on L1210 is 5.96; in the series on CCRF-CEM, 6.04; in series [10], 6.38; in the series on HeLa, 5.96; with HMEC-1 it was 6.21.

`CCCCCn1cc(-c2nc(C34CC5CC(CC(C5)C3)C4)no2)c(=O)c2cc(-c3ccco3)ccc21`: the “Ratio Ki” value in series [14] is reported as over 82. Moreover, the pKi at Cannabinoid receptor 2 is 9.40; at Cannabinoid receptor 1 it was 7.48.

In series [13], `CC(C)C[C@H](NC(=O)[C@H](Cc1ccccc1)N/C=C/NC(=O)CNC(=O)[C@@H](N)Cc1ccc(O)cc1)C(=O)O` had a pKi of 6.23.

For `CN(C)CCCNC(=O)c1cc(NC(=O)c2cc(/C=C/c3cc([N+](=O)[O-])cn3C)cn2C)cn1C`, the Kapp in [6] is 7.4 10^5/M; in series [7] it was 16.9 10^5/M.

Turning to `CCCCCn1cc(-c2nnc(C34CC5CC(CC(C5)C3)C4)o2)c(=O)c2cc(-c3ccco3)ccc21`, the “Ratio Ki” value in [14] is over 1543. Also, the pKi at Cannabinoid receptor 2 is 8.19; on Cannabinoid receptor 1, under 5.00.

Take `Cn1cc(NC(=O)c2cc(NC(=O)c3cc(NC=O)cn3C)cn2C)cc1C(=O)NCCC(=N)N`: the figures for the Kapp in series [6] and in series [7] were 1.3 10^5/M and 345 10^5/M, respectively.

In series [13], `CC(C)C[C@H](NC(=O)[C@H](Cc1ccccc1)OC(=O)CNC(=O)CNC(=O)[C@@H](N)Cc1ccc(O)cc1)C(=O)O` (H-YGG[PhLac]L-OH) had a pKi of 7.47.
